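1) Cells in 96-well plates. 2) Compound, 48 h, 5 concentrations. 3) Linear interpolation between surrounding doses. 4) Unreached endpoint = highest concentration. GI50 marks 50% less growth.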 Activity calls are given as the source filed them. Rule as the data show it: active = GI50 up to about 1.1 µM and inactive = higher.
Experiments:
Test in all cases: inhibition of tumour cell growth, NCI panel, 48 h
A498 = test system: A498
U-251 = test system: U-251
XF498 = test system: XF498
OVCAR-5 = test system: OVCAR-5
A549 = test system: A549
SNB-19 = test system: SNB-19
UACC-62 = test system: UACC-62
UO-31 = test system: UO-31
COLO 205 = test system: COLO 205
SK-OV-3 = test system: SK-OV-3
SK-MEL-5 = test system: SK-MEL-5
NCI-H522 = test system: NCI-H522
SN12C = test system: SN12C
NCI-H23 = test system: NCI-H23
SF-268 = test system: SF-268
SNB-75 = test system: SNB-75
SW-620 = test system: SW-620
M19-MEL = test system: M19-MEL
DMS-114 = test system: DMS-114
HCC 2998 = test system: HCC 2998
ACHN = test system: ACHN
SNB-78 = test system: SNB-78
DLD-1 = test system: DLD-1
HCT-116 = test system: HCT-116
OVCAR-8 = test system: OVCAR-8
OVCAR-3 = test system: OVCAR-3
OVCAR-4 = test system: OVCAR-4
IGROV-1 = test system: IGROV-1
HOP-62 = test system: HOP-62
CAKI-1 = test system: CAKI-1
786-0 = test system: 786-0
KM-20L2 = test system: KM-20L2
MOLT-4 = test system: MOLT-4
DMS-273 = test system: DMS-273
M14 = test system: M14
Malme-3M = test system: Malme-3M
HOP-18 = test system: HOP-18
SR = test system: SR
SK-MEL-2 = test system: SK-MEL-2
EKVX = test system: EKVX
TK-10 = test system: TK-10
RXF 393 = test system: RXF 393
NCI-H226 = test system: NCI-H226
HOP-92 = test system: HOP-92
SF-539 = test system: SF-539
KM12 = test system: KM12
LOX IMVI = test system: LOX IMVI
SK-MEL-28 = test system: SK-MEL-28
LXFL 529 = test system: LXFL 529
RXF 631 = test system: RXF 631
CCRF-CEM = test system: CCRF-CEM
UACC-257 = test system: UACC-257
HT-29 = test system: HT-29
HL-60 = test system: HL-60
K562 = test system: K562
SF-295 = test system: SF-295
RPMI-8226 = test system: RPMI-8226
HCT-15 = test system: HCT-15
NCI-H460 = test system: NCI-H460

Measured: GI50

O=Cc1[nH]c2ccccc2c1Br
inactive: A498 16.8 µM | U-251 21.6 µM | XF498 30.1 µM | OVCAR-5 98.4 µM | A549 > 100 µM | SNB-19 24.8 µM | UACC-62 16.9 µM | UO-31 30.8 µM | COLO 205 17.7 µM | SK-OV-3 20.8 µM | SK-MEL-5 16.5 µM | NCI-H522 56.8 µM | SN12C 22.6 µM | NCI-H23 30.3 µM | SF-268 22.9 µM | SNB-75 19.2 µM | SW-620 34.6 µM | M19-MEL 22.1 µM | DMS-114 18.5 µM | HCC 2998 60.5 µM | ACHN 26 µM | SNB-78 15.8 µM | DLD-1 22.6 µM | HCT-116 18.5 µM | OVCAR-8 23.7 µM | OVCAR-3 21.8 µM | OVCAR-4 31.3 µM | IGROV-1 26.7 µM | HOP-62 18 µM | CAKI-1 > 100 µM | 786-0 28 µM | KM-20L2 22.2 µM | MOLT-4 22.5 µM | DMS-273 17.8 µM | M14 19.3 µM | Malme-3M 18.5 µM | HOP-18 27.7 µM | SR 21.7 µM | SK-MEL-2 15.2 µM | EKVX 35.9 µM | TK-10 36.6 µM | RXF 393 25.4 µM | NCI-H226 29.8 µM | HOP-92 26.8 µM | SF-539 15.3 µM | KM12 26.3 µM | LOX IMVI 26.7 µM | SK-MEL-28 25.1 µM | LXFL 529 25.5 µM | RXF 631 20 µM | CCRF-CEM 37.4 µM | UACC-257 28.5 µM | HT-29 25.1 µM | HL-60 13.8 µM | K562 15 µM | SF-295 38.4 µM

Nc1nc(-c2ccc(Cl)c([N+](=O)[O-])c2)cs1
inactive: A498 20 µM | U-251 40.6 µM | XF498 27.5 µM | OVCAR-5 > 100 µM | A549 > 100 µM | SNB-19 68.2 µM | UACC-62 > 100 µM | UO-31 78.9 µM | COLO 205 > 100 µM | RPMI-8226 > 100 µM | SK-OV-3 > 100 µM | SK-MEL-5 > 100 µM | SN12C > 100 µM | NCI-H23 73.5 µM | SF-268 86.5 µM | SNB-75 30.4 µM | SW-620 > 100 µM | M19-MEL > 100 µM | DMS-114 64.7 µM | HCC 2998 > 100 µM | ACHN > 100 µM | SNB-78 52.5 µM | DLD-1 > 100 µM | HCT-116 58.7 µM | OVCAR-8 > 100 µM | OVCAR-3 > 100 µM | OVCAR-4 > 100 µM | IGROV-1 > 100 µM | HOP-62 > 100 µM | CAKI-1 80 µM | 786-0 59.4 µM | KM-20L2 > 100 µM | MOLT-4 97.3 µM | DMS-273 > 100 µM | M14 > 100 µM | Malme-3M > 100 µM | HOP-18 35.4 µM | SK-MEL-2 > 100 µM | EKVX 94.8 µM | TK-10 > 100 µM | RXF 393 29.3 µM | HOP-92 16.2 µM | SF-539 28.7 µM | KM12 71 µM | LOX IMVI > 100 µM | LXFL 529 > 100 µM | RXF 631 > 100 µM | CCRF-CEM > 100 µM | UACC-257 > 100 µM | HT-29 > 100 µM | HL-60 > 100 µM | K562 > 100 µM | NCI-H460 > 100 µM | SF-295 45.9 µM
> 100 µM: HCT-15

CCOC(=O)[C@@]1(C)C=C2O[C@@H]3OC4(CCCCC4)O[C@@H]3C2=C2C(O)=CC=C(O)[C@]21C(=O)OC
inactive: A498 > 68.1 µM | U-251 > 68.1 µM | XF498 > 68.1 µM | OVCAR-5 > 68.1 µM | A549 > 68.1 µM | SNB-19 > 68.1 µM | UACC-62 > 68.1 µM | UO-31 > 68.1 µM | COLO 205 > 68.1 µM | RPMI-8226 38.6 µM | SK-OV-3 > 68.1 µM | SK-MEL-5 > 68.1 µM | NCI-H522 > 68.1 µM | SN12C > 68.1 µM | NCI-H23 > 68.1 µM | SF-268 > 68.1 µM | SNB-75 > 68.1 µM | SW-620 > 68.1 µM | M19-MEL > 68.1 µM | DMS-114 > 68.1 µM | HCC 2998 > 68.1 µM | ACHN > 68.1 µM | SNB-78 > 68.1 µM | DLD-1 > 68.1 µM | HCT-116 > 68.1 µM | OVCAR-8 > 68.1 µM | OVCAR-3 > 68.1 µM | OVCAR-4 > 68.1 µM | IGROV-1 > 68.1 µM | HOP-62 > 68.1 µM | CAKI-1 51.4 µM | 786-0 > 68.1 µM | KM-20L2 > 68.1 µM | MOLT-4 33.7 µM | DMS-273 > 68.1 µM | M14 20.7 µM | Malme-3M > 68.1 µM | HOP-18 > 68.1 µM | SK-MEL-2 > 68.1 µM | EKVX > 68.1 µM | TK-10 > 68.1 µM | NCI-H226 > 68.1 µM | HOP-92 13.4 µM | KM12 > 68.1 µM | LOX IMVI > 68.1 µM | SK-MEL-28 > 68.1 µM | LXFL 529 > 68.1 µM | RXF 631 > 68.1 µM | CCRF-CEM > 68.1 µM | UACC-257 > 68.1 µM | HT-29 > 68.1 µM | HL-60 33 µM | K562 51.1 µM | NCI-H460 > 68.1 µM | SF-295 > 68.1 µM
> 68.1 µM: HCT-15

— ChEMBL document CHEMBL1201862, “PubChem BioAssay data set” (2004)
